This is an account of results in patent publication US20100273694A1, “SURFACTANT COMPOSITION METHOD FOR PRODUCTION THEREOF AND COSMETIC COMPRISING SAID COMPOSITION” (EIFFAGE TRAVAUX PUBLICS, priority 2004, published 2010).

This data set can be described thus: Measurement of surface tension and critical micellar concentrations (rising drop tensiometer). In kind it is physicochemical. The following applies: rising drop method; for CMC: critical micellar concentration; for γcmc: surface tension at the CMC. Here is the method: The tensiometric measurements were carried out with a drop tensiometer operating by the method of the rising drop ([…] tensiometer, I.T. CONCEPT).

Take “9-octadecenyl betaine mesylate [Esters C18:1]”: the CMC is recorded as 1.10^−4 M and the γcmc was 36.6 mN/m.
On the same counts, the results for “betainylaminooctadecenyl mesylate [Amides C18:1]” are 0.00012 M and 36.2 mN/m.
For “octadecyl betaine mesylate [Esters C18:0]”, the CMC is 8.10^−4 M and the γcmc stood at 37.2 mN/m.
On the same counts, the results for `CCCCCCCCCCCCOS(=O)(=O)[O-].[Na+]` [SDS (C12), sodium dodecyl sulphate, reference compound] are 0.008 M and 30.0 mN/m.
The matching figures for “betainylaminooctadecane mesylate [Amides C18:0]”: 0.00014 M and 36.0 mN/m.
